Experiment: Intraduodenal (id) bioavailability screen in minipigs, plasma level of parent Mn complex by HPLC/MS/MS
Assay type: in vivo, Gottingen minipig
Details: for Mini-Pig BioA: id 10 mg/kg, vs 1 mg/kg iv parent chloro complex, AUC0→24 h
Experimental: Compounds were screened for oral bioavailability by injecting the formulated prodrugs directly into the duodenum (intraduodenal or id administration) of the minipig test subjects, thus bypassing the acidic environment of the stomach and thereby eliminating potentially misleading oral bioavailability results that could arise from alteration of the test article drug in the acid environment of the stomach.
The studies were conducted at Xenometrics LLC (Stillwell, Kans.) and the id bioavailability was determined using various axial ligand derivative complexes of GC4419, GC4444, GC4403 and GC4401.
Male Gottingen minipigs (4-5 mo old, 9-12 kg weight) were purchased from Marshall BioResources and housed at Xenometrics. […] The distal end was exteriorized with a reusable accessible hub (see surgical details below). During a recovery period of at least 2 weeks the minipigs were handled daily to acclimate them to the test procedures, i.e., id dosing and blood collections. For each experiment, each minipig received a test article drug dissolved or suspended in an excipient vehicle. […] All dosing experiments were conducted in fasted animals. Food was withdrawn from the minipigs 16 hours before dosing. The minipigs had ad libitum access to water. Dosed minipigs were allowed access to food 6 hour after dosing. The test article was administered at a dose of 10 mg/kg parent drug in 0.1 mL/kg vehicle (e.g., 1.5 mL in 15 kg minipig) as a bolus injection (˜1 minute) via the id cannula. The actual amount of total test article drug administered varied with the formula weight of the prodrug. An equal volume of excipient vehicle was used to flush the cannula after the test article was administered. Approximately 6 hours later, corn oil was used to flush the cannula. After approximately 24 hours post-dose, the catheter was flushed with sterile saline solution and capped. At the following time-points 0.25, 0.5, 1, 2, 4, 8, 24 and 48 hour post-injection, 2 mL blood samples were collected by cranial vena cava puncture (4 mL Sodium heparin Vacutainer, 20 g 1.5″ needle) after the skin surface was wiped with ethanol. The minipig was placed in a sling in a recumbent position without anesthesia for the collection of blood samples. The minipigs were never used more than once per 7 days for experimentation. The blood samples were kept on ice until processed for plasma. Blood samples were centrifuged at 1200×g for ten minutes at 4° C. and plasma samples were transferred to 96 well plate tubes, capped and stored at −20° C. until shipment on dry ice to the analytical laboratory used for measuring the concentration of drug in the plasma. The concentration of the parent manganese pentaaza macrocylic ring complex (independent of the composition of the axial ligands) was measured in plasma using a validated HPLC/MS/MS method that is linear between 50 ng/mL and 20,000 ng/mL.
The oils used for preparing the dosing solutions were used as supplied from commercial sources. The Capmul MCM (NF) is a mixture of mono/diglycerides of caprylic/capric acids and was supplied by ABITEC Corporation, Janesville, Wis. The Miglyol 812 N is a mixture of caprylic/capric acid triglycerides and was supplied by Cremer Oleo Division, Eatontown, N.J. Labrafil M 2125 CS (NF) is chemically defined to be linoleoyl polyoxyl-6 glycerides NF and was supplied by Gattefosse, SAINT-PRIEST Cedex, France. Peceol is chemically defined to be the monoglyceride, glyceryl monooleate NF, and was supplied by Gattefosse, SAINT-PRIEST Cedex, France. Maisine 35-1 is chemically defined to be the monoglyceride glyceryl monolinoleate (NF) and was supplied by Gattefosse, SAINT-PRIEST Cedex, France. Labrasol (NF) is chemically defined to be caprylocaproyl polyoxyl-8 glycerides NF and was supplied by Gattefosse, SAINT-PRIEST Cedex, France. Labrafil M 1944 CS is chemically defined to be oleoyl polyoxyl-6 glycerides (NF), and is available from Gattefosse, SAINT-PRIEST Cedex, France. […]

[1] = base oil Capmul MCM, 10% by weight
[2] = base oil Labrafil M2125 CS, 10% by weight
[3] = base oil Miglyol 812N, 10% by weight
[4] = base oil Maisine 35-1, 10% by weight

With “Manganese(II)bis-cyclohexanebutyrato[(4aS,13aS,17aS,21aS)-1,2,3,4,4a,5,6,12,13,13a, 14,15,16,17,17a,18,19,20,21,21a-Eicosahydro-11,7-nitrilo-7H-dibenzo[b,h][1,4,7,10]tetraazacyclo-heptadecine-κN5,κN13,κN18,κN21,κN22]- [GC4707]” the “Mini-Pig BioA” value [1] was 9%.
With “Manganese(II)bis-propionato[6R-Methyl(4aR,13aR,17aR,21aR)-1,2,3,4,4a,5,6,12,13,13a,14,15,16,17,17a,18,19,20,21,21a-Eicosahydro-11,7-nitrilo-7H-dibenzo[b,h][1,4,7,10]tetraazacycloheptadecine-κN5,κN13,κN18,κN21,κN22]- [GC4747]” the “Mini-Pig BioA” value [2] was 20%.
With “Manganese(II)bis-pivaloato[(4aS,13aS,17aS,21aS)-1,2,3,4,4a,5,6,12,13,13a,14,15,16,17,17a,18,19,20,21,21a-Eicosahydro-11,7-nitrilo-7H-dibenzo[b,h][1,4,7,10]tetraazacycloheptadecine-κN5,κN13,κN18,κN21,κN22]- [GC4709]” the “Mini-Pig BioA” value [1] was 17% and the “Mini-Pig BioA” value [2] was 22%.
With “Manganese(II)bis-racemic-phenylglycinato[6R-Methyl(4aR,13aR,17aR,21aR)-1,2,3,4,4a,5,6,12,13,13a,14,15,16,17,17a,18,19,20,21,21a-Eicosahydro-11,7-nitrilo-7H-dibenzo[b,h][1,4,7,10]tetraazacycloheptadecine-κN5,κN13,κN18,κN21,κN22]- [GC4716]” the “Mini-Pig BioA” value [1] was 34%.
For “Manganese(II)bis-racemic-phenylglycinato[(4aR,13aR,17aR,21aR)-1,2,3,4,4a,5,6,12,13,13a,14,15,16,17,17a,18,19,20,21,21a-Eicosahydro-11,7-nitrilo-7H-dibenzo[b,h][1,4,7,10]tetraazacycloheptadecine-κN5,κN13,κN18,κN21,κN22]- [GC4717]”, the “Mini-Pig BioA” value [1] was 26%.
For “Manganese(II)bis-racemic-phenylglycinato[(4aS,13aS,17aS,21aS)-1,2,3,4,4a,5,6,12,13,13a,14,15,16,17,17a,18,19,20,21,21a-Eicosahydro-11,7-nitrilo-7H-dibenzo[b,h][1,4,7,10]tetraazacycloheptadecine-κN5,κN13,κN18,κN21,κN22]- [GC4720]”, the “Mini-Pig BioA” value [1] was 33% and the “Mini-Pig BioA” value [3] was 32%.
With “Manganese(II)bis-rac-Mandelato[(4aS,13aS,17aS,21aS)-1,2,3,4,4a,5,6,12,13,13a,14,15,16,17,17a,18,19,20,21,21a-Eicosahydro-11,7-nitrilo-7H-dibenzo[b,h][1,4,7,10]tetraazacycloheptadecine-κN5,κN13,κN18,κN21,κN22]- [GC4706]” the “Mini-Pig BioA” value [1] was 28%.
For “Manganese(II)bis-racemic-phenylglycinato[2S,21S-Dimethyl(4aR,13aR,17aR,21aR)-1,2,3,4,4a,5,6,12,13,13a,14,15,16,17,17a,18,19,20,21,21a-Eicosahydro-11,7-nitrilo-7H-dibenzo[b,h][1,4,7,10]tetraazacycloheptadecine-κN5,κN13,κN18,κN21,κN22]- [GC4715]”, the “Mini-Pig BioA” value [1] was 36%.
For “Manganese(II)bis-propionato[(4aS,13aS,17aS,21aS)-1,2,3,4,4a,5,6,12,13,13a,14,15,16,17,17a,18,19,20,21,21a-Eicosahydro-11,7-nitrilo-7H-dibenzo[b,h][1,4,7,10]tetraaza-cycloheptadecine-κN5,κN13,κN18,κN21,κN22]- [GC4711]”, the “Mini-Pig BioA” value [1] was 27%, the “Mini-Pig BioA” value (base oil Labrafil M1944 CS, 10% by weight) was 23% and the “Mini-Pig BioA” value [2] was 44%. For the same substance, the “Mini-Pig BioA” value [4] was 29% and the “Mini-Pig BioA” value (base oil Peceol, 10% by weight) was 29%.
With “Manganese(II)bis-L-phenylglycinato[(4aS,13aS,17aS,21aS)-1,2,3,4,4a,5,6,12,13,13a, 14,15,16,17,17a,18,19,20,21,21a-Eicosahydro-11,7-nitrilo-7H-dibenzo[b,h][1,4,7,10]tetraazacyclo-heptadecine-κN5,κN13,κN18,κN21,κN22]- [GC4702]” the “Mini-Pig BioA” value [1] was 43%, the “Mini-Pig BioA” value [2] was 25% and the “Mini-Pig BioA” value [3] was 42%. The “Mini-Pig BioA” value (base oil Peceol, 10% by weight) was 29% and the “oral bioavailability / absorption, comparison in words” value (minipig id dosing, oil formulations, comparison between axial ligands) was “much better absorbed”.
In the case of “Manganese(II)bis-propionato[(4aR,13aR,17aR,21aR)-1,2,3,4,4a,5,6,12,13,13a,14,15,16,17,17a,18,19,20,21,21a-Eicosahydro-11,7-nitrilo-7H-dibenzo[b,h][1,4,7,10]tetraazacycloheptadecine-κN5,κN13,κN18,κN21,κN22]- [GC4748]”, the “Mini-Pig BioA” value [2] is reported as 22%.
With “Manganese(II)bis-phenylacetato[(4aS,13aS,17aS,21aS)-1,2,3,4,4a,5,6,12,13,13a,14,15,16,17,17a,18,19,20,21,21a-Eicosahydro-11,7-nitrilo-7H-dibenzo[b,h][1,4,7,10]tetraazacyclo-heptadecine-κN5,κN13,κN18,κN21,κN22]- [GC4718]” the “Mini-Pig BioA” value [1] was 32% and the “Mini-Pig BioA” value [4] was 28%.
In the case of “Manganese(II)bis-L-valinato[(4aS,13aS,17aS,21aS)-1,2,3,4,4a,5,6,12,13,13a,14,15,16,17,17a,18,19,20,21,21a-Eicosahydro-11,7-nitrilo-7H-dibenzo[b,h][1,4,7,10]tetraazacyclo-heptadecine-κN5,κN13,κN18,κN21,κN22]- [GC4746]”, the “Mini-Pig BioA” value [1] is reported as 13%.
In the case of “Manganese(II)bis-octanoato[(4aS,13aS,17aS,21aS)-1,2,3,4,4a,5,6,12,13,13a,14,15,16,17,17a,18,19,20,21,21a-Eicosahydro-11,7-nitrilo-7H-dibenzo[b,h][1,4,7,10]tetraazacycloheptadecine-κN5,κN13,κN18,κN21,κN22]- [GC4710]”, the “Mini-Pig BioA” value [1] is reported as 13%, the “Mini-Pig BioA” value [2] is reported as 21% and the “Mini-Pig BioA” value [4] is reported as 8%.
For “Manganese(II)bis-n-Butyrato[(4aS,13aS,17aS,21aS)-1,2,3,4,4a,5,6,12,13,13a,14,15,16,17,17a,18,19,20,21,21a-Eicosahydro-11,7-nitrilo-7H-dibenzo[b,h][1,4,7,10]tetraazacycloheptadecine-κN5,κN13,κN18,κN21,κN22]- [GC4713]”, the “Mini-Pig BioA” value [2] was 21% and the “Mini-Pig BioA” value (base oil Peceol, 10% by weight) was 18%.
With “Manganese(II)bis-L-phenylalaninato[(4aS,13aS,17aS,21aS)-1,2,3,4,4a,5,6,12,13,13a,14,15,16,17,17a,18,19,20,21,21a-Eicosahydro-11,7-nitrilo-7H-dibenzo[b,h][1,4,7,10]tetraazacyclo-heptadecine-κN5,κN13,κN18,κN21,κN22]- [GC4704]” the “Mini-Pig BioA” value [1] was 10%.
For “Manganese(II)bis-acetato[(4aS,13aS,17aS,21aS)-1,2,3,4,4a,5,6,12,13,13a,14,15,16,17,17a,18,19,20,21,21a-Eicosahydro-11,7-nitrilo-7H-dibenzo[b,h][1,4,7,10]tetraazacycloheptadecine-κN5,κN13,κN18,κN21,κN22]- [GC4701]”, the “Mini-Pig BioA” value [1] was 15%, the “Mini-Pig BioA” value [2] was 16% and the “Mini-Pig BioA” value [4] was 8%. For the same substance, the “Mini-Pig BioA” value (base oil Peceol, 10% by weight) was 11%.
With “Manganese(II)bis-dodecanoato[(4aS,13aS,17aS,21aS)-1,2,3,4,4a,5,6,12,13,13a,14,15,16,17,17a,18,19,20,21,21a-Eicosahydro-11,7-nitrilo-7H-dibenzo[b,h][1,4,7,10]tetraazacycloheptadecine-κN5,κN13,κN18,κN21,κN22]- [GC4708]” the “Mini-Pig BioA” value [1] was 12%.

From US9738669B2, “Pentaaza macrocyclic ring complexes possessing oral bioavailability” (Galera Labs, LLC, priority 2015, dated 2017)
